Measured values taken from patent US20020132801A1, “Drospirenone for hormone replacement therapy” (Schering Aktiengesellschaft, priority 2001, published 2002).

Key:
Assay type in all cases: physicochemical
[1] = Solubility in water and aqueous buffers; details: water and aqueous buffers at various pH values
[2] = Chemical stability under acid and alkaline conditions
[3] = In vitro dissolution from tablet, USP XXIII Paddle Method; details: drospirenone in micronized form in a pharmaceutical composition; rapid dissolution defined as at least 70% over about 30 minutes from 3 mg tablet in 900 ml water at 37° C., 50 rpm
Description: A micronized substance is such that a test batch (ca. 200 mg) of the particles, herein drospirenone particles, has a surface area of more than 10,000 cm^2/g, and has the following particle size distribution for drospirenone as determined under the microscope: not more than 2 particles in a given batch (ca. 200 mg) with a diameter of more than 30 μm, and preferably ≦20 particles with a diameter of ≧10 μm and ≦30 μm.

- solubility [1]: sparingly soluble
- stability under acid conditions ([2]; acid conditions): rearranged to an inactive isomer
- stability under alkaline conditions ([2]; alkaline conditions): hydrolysed
- in vitro dissolution of active compound from composition [3]: rapid dissolution
SMILES: C[C@]12CCC(=O)C=C1[C@@H]1C[C@@H]1[C@H]1[C@@H]3[C@@H]4C[C@@H]4[C@@]4(CCC(=O)O4)[C@@]3(C)CC[C@@H]12 [drospirenone, 6β,7β;15β;16β-dimethylene-3-oxo-17α-preg-4-ene-21,17-carbolactone]
